Assay results as given in patent US10537535B2, “Histone deacetylase inhibitors” (The Regents of the University of California, priority 2015, dated 2020).

Target: T1, human HDAC1 (Homo sapiens, UniProt Q13547)
T1 construct: purchased Cayman Chemical 10011563
Assay: Fluorometric HDAC activity assay, purified human HDAC1
Format: biochemical
Protocol: The ability of diacetyl (odor 1) to inhibit human HDAC activity was investigated using in-vitro assays with a human HDAC1 kit.
In order to directly test whether diacetyl acts as an inhibitor of HDACs, in vitro acetylation assays was performed with purified human HDACs. […]
HDAC activity of class I HDACs (HDAC1, 2, 3 and 8) was measured with the fluorometric HDAC Activity Assay kit: HDAC1 (10011563, Cayman Chemical, Ann Arbor, Mich.), HDAC2, HDAC 3 and HDAC 8 (50062, 50073 and 50068, BPS Bioscience, San Diego, Calif.), according to the manufacturer's instructions.

T1 sequence (Q13547 whole entry): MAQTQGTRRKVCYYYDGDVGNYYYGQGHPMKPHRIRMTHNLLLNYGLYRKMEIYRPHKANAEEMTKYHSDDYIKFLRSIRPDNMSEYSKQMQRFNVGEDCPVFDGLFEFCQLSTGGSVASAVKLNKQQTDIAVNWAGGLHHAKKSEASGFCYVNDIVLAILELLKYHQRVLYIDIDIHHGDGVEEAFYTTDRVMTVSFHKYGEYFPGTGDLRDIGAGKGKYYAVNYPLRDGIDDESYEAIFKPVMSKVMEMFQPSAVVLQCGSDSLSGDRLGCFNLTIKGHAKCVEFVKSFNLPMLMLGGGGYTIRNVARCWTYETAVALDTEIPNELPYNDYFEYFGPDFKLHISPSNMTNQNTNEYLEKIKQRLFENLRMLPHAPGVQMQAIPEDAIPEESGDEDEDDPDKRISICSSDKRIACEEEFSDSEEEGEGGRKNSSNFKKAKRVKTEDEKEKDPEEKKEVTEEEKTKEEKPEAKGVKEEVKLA

IC50 (purified human HDAC1, n=4-5): 7.2 mM
SMILES: CC(=O)C(C)=O [diacetyl, 2,3-Butanedione]
inhibition of human HDAC activity (human HDAC1 kit) (compared with sodium butyrate, FIG. 1C): effective HDAC inhibitor and comparable to sodium butyrate
